Measurements published in the NIST ThermoML archive (doi:10.1021/je020196d).
Numbers after ± are expanded uncertainties.

How the values were obtained:
[1] = 293.15 K; 101.33 kPa; Liquid
[2] = refractive index (Na D-line) (dimensionless); conditions: 293.15 K; 101.33 kPa; Liquid; Standard Abbe refractometry
[3] = activity coefficient (dimensionless); of the first substance listed, at infinite dilution; xn = mol fraction of the nth substance listed; conditions: Liquid, x1 = 0

mass density [1] [kg/m3]	refractive index [2]	activity coefficient ([3]; 323.15 K, Chromatography)	activity coefficient ([3]; 333.15 K, Chromatography)	activity coefficient ([3]; 343.15 K, Chromatography)	activity coefficient ([3]; 353.15 K, Chromatography)	activity coefficient ([3]; 363.15 K, Chromatography)	activity coefficient ([3]; 373.1 K, Chromatography)	activity coefficient ([3]; 383.15 K, Chromatography)	activity coefficient ([3]; 393.15 K, Chromatography)	SMILES	also measured
878.3 ± 5	1.5015 ± 0.0007	–	–	–	–	–	–	–	–	c1ccccc1 [benzene]	–
–	–	4.62 ± 0.21	4.38 ± 0.2	4.26 ± 0.19	4.1 ± 0.19	3.97 ± 0.18	3.92 ± 0.18	3.82 ± 0.17	3.75 ± 0.17	c1ccccc1 [benzene] + OCCOCCOCCO	–
–	–	–	2.99 ± 0.14	–	2.73 ± 0.12	2.65 ± 0.12	2.5 ± 0.11	2.41 ± 0.11	2.37 ± 0.11	c1ccccc1 [benzene] + OCCOCCOCCOCCO	activity coefficient ([3]; 403.15 K, Chromatography): 2.27 ± 0.1
730.2 ± 5	1.4113 ± 0.0007	–	–	–	–	–	–	–	–	CCCCCCCCCC [decane]	–
–	–	252 ± 12	219 ± 10	196 ± 9.3	162 ± 7.6	141 ± 6.6	125 ± 5.9	107 ± 5	95.6 ± 4.5	CCCCCCCCCC [decane] + OCCOCCOCCO	–
–	–	–	123 ± 5.8	–	87.8 ± 4.1	75.1 ± 3.5	64.4 ± 3	55.2 ± 2.6	51.3 ± 2.4	CCCCCCCCCC [decane] + OCCOCCOCCOCCO	activity coefficient ([3]; 403.15 K, Chromatography): 42.9 ± 2
867.4 ± 5	1.4955 ± 0.0007	–	–	–	–	–	–	–	–	CCc1ccccc1 [ethylbenzene]	–
–	–	10.9 ± 0.5	10.3 ± 0.47	9.73 ± 0.45	9.1 ± 0.42	8.72 ± 0.4	8.39 ± 0.38	7.94 ± 0.36	7.72 ± 0.35	CCc1ccccc1 [ethylbenzene] + OCCOCCOCCO	–
–	–	–	6.39 ± 0.29	–	5.63 ± 0.26	5.31 ± 0.24	5 ± 0.23	4.73 ± 0.22	4.58 ± 0.21	CCc1ccccc1 [ethylbenzene] + OCCOCCOCCOCCO	activity coefficient ([3]; 403.15 K, Chromatography): 4.35 ± 0.2
683.5 ± 5	1.3878 ± 0.0007	–	–	–	–	–	–	–	–	CCCCCCC [heptane]	–
–	–	93.3 ± 4.4	82.7 ± 3.9	71.9 ± 3.4	62.7 ± 2.9	55.3 ± 2.6	50.2 ± 2.3	44.3 ± 2.1	40.6 ± 1.9	CCCCCCC [heptane] + OCCOCCOCCO	–
–	–	–	50.2 ± 2.3	–	37.6 ± 1.7	32.1 ± 1.5	29.8 ± 1.4	26.1 ± 1.2	23.1 ± 1.1	CCCCCCC [heptane] + OCCOCCOCCOCCO	activity coefficient ([3]; 403.15 K, Chromatography): 20.8 ± 0.96
717.8 ± 5	1.4057 ± 0.0007	–	–	–	–	–	–	–	–	CCCCCCCCC [nonane]	–
–	–	183 ± 8.6	156 ± 7.4	140 ± 6.6	119 ± 5.6	103 ± 4.8	93 ± 4.4	81.4 ± 3.8	73.9 ± 3.5	CCCCCCCCC [nonane] + OCCOCCOCCO	–
–	–	–	92.3 ± 4.3	–	64.7 ± 3	57.4 ± 2.7	49.3 ± 2.3	42.9 ± 2	39.7 ± 1.8	CCCCCCCCC [nonane] + OCCOCCOCCOCCO	activity coefficient ([3]; 403.15 K, Chromatography): 34.1 ± 1.6
702.6 ± 5	1.3975 ± 0.0007	–	–	–	–	–	–	–	–	CCCCCCCC [octane]	–
–	–	129 ± 6.1	113 ± 5.3	99.5 ± 4.7	86.9 ± 4.1	75.8 ± 3.5	68.7 ± 3.2	60.5 ± 2.8	56.7 ± 2.6	CCCCCCCC [octane] + OCCOCCOCCO	–
–	–	–	–	–	–	–	–	–	–	CCCCCCCC [octane] + OCCOCCOCCOCCO	activity coefficient ([3]; 333.15 K): 68.1 ± 6.4; activity coefficient ([3]; 353.15 K): 49.5 ± 4.6; activity coefficient ([3]; 363.15 K): 43.2 ± 4; activity coefficient ([3]; 373.1 K): 37.5 ± 3.5; activity coefficient ([3]; 383.15 K): 32.4 ± 3; activity coefficient ([3]; 393.15 K): 31.4 ± 2.9; activity coefficient ([3]; 403.15 K): 25.8 ± 2.4
1127.8 ± 5	1.4556 ± 0.0007	–	–	–	–	–	–	–	–	OCCOCCOCCO [triethylene glycol]	–

SMILES	mass density [1] [kg/m3]	refractive index [2]	activity coefficient ([3]; 323.15 K, Chromatography)	activity coefficient ([3]; 333.15 K, Chromatography)	activity coefficient ([3]; 343.15 K, Chromatography)	activity coefficient ([3]; 353.15 K, Chromatography)	activity coefficient ([3]; 363.15 K, Chromatography)	activity coefficient ([3]; 373.1 K, Chromatography)	activity coefficient ([3]; 383.15 K, Chromatography)	activity coefficient ([3]; 393.15 K, Chromatography)	also measured
Cc1ccccc1 [toluene]	866.7 ± 5	1.4962 ± 0.0007	–	–	–	–	–	–	–	–	–
Cc1ccccc1 [toluene] + OCCOCCOCCO	–	–	7.11 ± 0.33	6.8 ± 0.31	6.51 ± 0.3	6.25 ± 0.29	5.99 ± 0.27	5.85 ± 0.27	5.56 ± 0.25	5.51 ± 0.25	–
Cc1ccccc1 [toluene] + OCCOCCOCCOCCO	–	–	–	4.5 ± 0.21	–	4.02 ± 0.18	3.85 ± 0.18	3.62 ± 0.16	3.46 ± 0.16	3.37 ± 0.15	activity coefficient ([3]; 403.15 K, Chromatography): 3.21 ± 0.15
